In publication PMC11084299 (International Journal of Molecular Sciences, 2024):

B1: Plasmodium falciparum tyrosyl-tRNA synthetase (enzyme, UniProt Q8IAR7 1-373, looked up)
chain: METTDTKREEQEIEEKKAQEESKIEDVDKILNDILSISSECIQPDELRVKLLLKRKLICYDGFEPSGRMHIAQGLLKSIIVNKLTSNGCTFIFWIADWFAHLNNKMSGDLKKIKKVGSYFIEVWKSCGMNMENVQFLWASEEINKKPNEYWSLVLDISRSFNINRMKRCLKIMGRSEGEENYCSQILYPCMQCADIFFLNVDICQLGIDQRKVNMLAREYCDIKKIKKKPVILSHGMLPGLLEGQEKMSKSDENSAIFMDDSESDVNRKIKKAYCPPNVIENNPIYAYAKSIIFPSYNEFNLVRKEKNGGDKTYYTLQELEHDYVNGFIHPLDLKDNVAMYINKLLQPVRDHFQNNIEAKNLLNEIKKYKVTK
notes: Tyrosyl-tRNA synthetase of Plasmodium falciparum, gene ID PF3D7-0807900, synthesized gene in pET28a; about 47 kDa on SDS-PAGE; No tag cleavage is described; The same protein was later captured on Ni-NTA biosensors for BLI with okanin, so the His tag was probably still present in the gel filtration; also called PfTyrRS; PfTysRS; source: E. coli BL21, purified (Ni-NTA, HiTrap Q HP, Superdex 200 …)
B2: Homo sapiens tyrosyl-tRNA synthetase (enzyme, UniProt P54577 1-528, looked up)
chain: MGDAPSPEEKLHLITRNLQEVLGEEKLKEILKERELKIYWGTATTGKPHVAYFVPMSKIADFLKAGCEVTILFADLHAYLDNMKAPWELLELRVSYYENVIKAMLESIGVPLEKLKFIKGTDYQLSKEYTLDVYRLSSVVTQHDSKKAGAEVVKQVEHPLLSGLLYPGLQALDEEYLKVDAQFGGIDQRKIFTFAEKYLPALGYSKRVHLMNPMVPGLTGSKMSSSEEESKIDLLDRKEDVKKKLKKAFCEPGNVENNGVLSFIKHVLFPLKSEFVILRDEKWGGNKTYTAYVDLEKDFAAEVVHPGDLKNSVEVALNKLLDPIREKFNTPALKKLASAAYPDPSKQKPMAKGPAKNSEPEEVIPSRLDIRVGKIITVEKHPDADSLYVEKIDVGEAEPRTVVSGLVQFVPKEELQDRLVVVLCNLKPQKMRGVESQGMLLCASIEGINRQVEPLDPPAGSAPGEHVFVKGYEKGQPDEELKPKKKVFEKLQADFKISEECIAQWKQTNFMTKLGSISCKSLKGGNIS
notes: Tyrosyl-tRNA synthetase, human, in pET28a; about 64 kDa on SDS-PAGE; No tag cleavage is described; also called HsTyrRS; HsTysRS; source: E. coli, purified (Ni column, ion exchange Q HP, size exclusion chromatography)

Key:
[1] = target: T1, Homo sapiens tyrosyl-tRNA synthetase (HsTyrRS) (Homo sapiens, UniProt P54577); test: ATP hydrolysis (consumption) assay, luciferin/luciferase luminescence, purified enzyme; format: biochemical
T1 construct: gene YARS1; recombinant HsTyrRS, C-terminal 10 × His tag, ~64 kDa, homodimer
T1 sequence (P54577 1-528): B2 chain

[2] = target: T2, Plasmodium falciparum tyrosyl-tRNA synthetase (PfTyrRS) (Plasmodium falciparum, UniProt Q8IAR7); test: bio-layer interferometry (Ni-NTA biosensors, immobilized PfTyrRS); supported by ATP hydrolysis inhibition (IC50 […]), TSA and limited proteolysis; format: binding
T2 construct: gene PF3D7_0807900; recombinant PfTyrRS (PF3D7-0807900), C-terminal 10 × His tag, ~47 kDa, homodimer

[3] = target: the molecule itself; test: SEC; Superdex 200 Increase 10/300 GL, final purification step; oligomeric state from the apparent molecular weight at the elution volume

| Molecule | IC50 [1] [µM] | Kd [2] [nM] | stoichiometry N [3] |
| --- | --- | --- | --- |
| O=C(/C=C/c1ccc(O)c(O)c1)c1ccc(O)c(O)c1O [okanin] | 38.2 ± 2.71 | 290 |  |
| B1 |  |  | 2 |
| B2 |  |  | 2 |
